Laboratory results from patent US10703746B2, “Mutant IDH1 inhibitors useful for treating cancer” (THE UNITED STATES OF AMERICA, AS REPRESENTED BY THE …, priority 2014, dated 2020).

Tests used:
IDH1 R132C = IDH1 R132C (Homo sapiens, UniProt O75874, R132C); assay: IDH1 R132C enzymatic assay (NADPH depletion coupled to diaphorase/resazurin); type: biochemical; conditions: enzymatic inhibition, IDH1 R132C
How it was run: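 NADPH depletion, read via diaphorase/resazurin coupling, after adding substrate at 0.6 mM α-KG and 0.012 mM NADPH. Beforehand, 0.00032 mg/mL enzyme sat with compound 30 min at room temperature in pH 6.5 potassium phosphate buffer with MgCl2, glycerol and BSA.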

IDH1 R132H = IDH1 R132H (Homo sapiens, UniProt O75874, R132H); assay: IDH1 R132H enzymatic assay (NADPH depletion coupled to diaphorase/resazurin); type: biochemical; conditions: enzymatic inhibition, IDH1 R132H
Sequence of IDH1 R132H (O75874 whole entry R132H): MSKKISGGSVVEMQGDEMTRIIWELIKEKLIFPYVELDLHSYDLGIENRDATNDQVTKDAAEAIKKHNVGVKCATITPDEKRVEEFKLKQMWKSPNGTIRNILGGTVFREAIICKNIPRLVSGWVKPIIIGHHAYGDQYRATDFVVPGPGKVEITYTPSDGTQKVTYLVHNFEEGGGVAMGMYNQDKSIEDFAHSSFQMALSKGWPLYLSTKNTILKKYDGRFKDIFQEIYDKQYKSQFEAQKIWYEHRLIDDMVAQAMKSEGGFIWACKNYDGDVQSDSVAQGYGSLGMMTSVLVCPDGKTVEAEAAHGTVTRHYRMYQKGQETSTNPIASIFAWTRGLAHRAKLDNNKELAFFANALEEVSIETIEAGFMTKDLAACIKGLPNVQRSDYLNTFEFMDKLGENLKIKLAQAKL

Sequence of IDH1 R132C (O75874 whole entry R132C): as the sequence (O75874 whole entry R132H) above, with H132C counted along it

SMILES | IC50 (IDH1 R132C) [nM] | IC50 (IDH1 R132H) [nM]
Cc1c(CO)cccc1-n1c2c(cc(-c3nc(-c4ccc(Cl)nc4)cs3)c1=O)C(=O)CCC2 [Compound 486] | 5000 to 20000 | 5000 to 20000
CCc1cccc(CC)c1-n1c(CC(C)C)c(C(=O)N2CCNCC2)cc(-c2ccn(Cc3ccc(Cl)cc3)n2)c1=O [Compound 487] | > 20000 | > 20000
CCOc1ncc(F)cc1-n1c(C=C(C)C)c(C(=O)N2CCNCC2)cc(-c2nc(-c3ccc(Cl)cc3)cs2)c1=O [Compound 488] | < 300 | < 300
CCc1cccc(CC)c1-n1c(C=C(C)C)c(C(=O)N2CCNC(C(C)C)C2)cc(-c2nc(-c3ccc(Cl)cc3)cs2)c1=O (stereo not drawn) [Compound 489] | < 300 | < 300
COc1ncc(Cl)cc1-n1c(C=C(C)C)c(C(=O)N2CCNCC2)cc(-c2nc(-c3ccc(Cl)cc3)cs2)c1=O [Compound 490] | < 300 | < 300
CCc1ccc(Cl)cc1-n1c(C=C(C)C)c(C(=O)N2CCNCC2)cc(-c2nc(-c3ccc(C(F)(F)F)nc3)cs2)c1=O [Compound 491] | < 300 | < 300
CCc1cccc(CC)c1-n1c(CC2CC2)c(C(=O)N2CCNCC2)cc(-c2nc(-c3ccc(Cl)nc3)cs2)c1=O [Compound 492] | < 300 | < 300
CN1CCN(c2ccc(-n3c4c(cc(-c5nc(-c6ccc(Cl)cc6)cs5)c3=O)C(=O)CC(C)(C)C4)c(C(F)(F)F)c2)CC1 [Compound 493] | 5000 to 20000 | 5000 to 20000
CC(C)=Cc1c(C(=O)N2CCNCC2)cc(-c2nc(-c3ccc(Cl)cc3)cs2)c(=O)n1-c1c(F)cccc1OC(C)C [Compound 494] | < 300 | < 300
CC(C)=Cc1c(C(=O)N2CCNCC2)cc(-c2nc(-c3ccc(Cl)cc3)cs2)c(=O)n1-c1cc(C)ccc1OC(C)C [Compound 496] | < 300 | < 300
CN1CCN(Cc2ccc(-n3c4c(cc(-c5nc(-c6ccc(Cl)cc6)cs5)c3=O)C(=O)CC(C)(C)C4)cc2)CC1 [Compound 498] | 5000 to 20000 | 1000 to 5000
CCc1cccc(CC)c1-n1c(C=C(C)C)c(C(=O)N2CCNC(=O)C2c2ccccc2)cc(-c2nc(-c3ccc(Cl)cc3)cs2)c1=O (stereo not drawn) [Compound 499] | < 300 | 300 to 1000
COc1ccc(Cl)c(-n2c(C=C(C)C)c(C(=O)N3CCNCC3)cc(-c3nc(-c4ccc(Cl)cc4)cs3)c2=O)c1 [Compound 500] | < 300 | < 300
CCc1cccc(CC)c1-n1c(CC(C)C)c(C(=O)N2CCNCC2)cc(-c2nc(-c3ccc(Cl)cc3)c(C#N)s2)c1=O [Compound 501] | 300 to 1000 | 300 to 1000
CCc1cccc(CC)c1-n1c(C2CC2)c(C(=O)N2CCNCC2)cc(-c2nc(-c3ccc(Cl)cc3)cs2)c1=O [Compound 502] | < 300 | < 300
COc1ccccc1-n1c2c(cc(-c3nc(-c4ccc(Cl)cc4)cs3)c1=O)C(=O)CCC2 [Compound 503] | 1000 to 5000 | 1000 to 5000
CCc1cccc(CC)c1-n1c(CC(C)C)c(C(=O)N2CCNCC2)cc(-c2csc(-c3ccc(Cl)cc3)n2)c1=O [Compound 505] | < 300 | < 300
CCc1cccc(CC)c1-n1c(CC2CCCO2)c(C(=O)N2CCNCC2)cc(-c2nc(-c3ccc(Cl)cc3)cs2)c1=O (stereo not drawn) [Compound 506] | < 300 | < 300
CCc1ncc(F)cc1-n1c(C=C(C)C)c(C(=O)N2CCNCC2)cc(-c2nc(-c3ccc(Cl)cc3)cs2)c1=O [Compound 507] | < 300 | < 300
CCc1cccc(OC(C)C)c1-n1c(C=C(C)C)c(C(=O)N2CCNCC2)cc(-c2nc(-c3ccc(Cl)cc3)cs2)c1=O [Compound 508] | < 300 | < 300
COc1ccc(C#N)cc1-n1c2c(cc(-c3nc(-c4ccc(Cl)cc4)cs3)c1=O)C(=O)CC(C)(C)C2 [Compound 509] | 1000 to 5000 | 1000 to 5000
CCc1cccc(CC)c1-n1c(C=C(C)C)c(C(=O)N2CCNCC2)cc(-c2ccn(-c3ccc(C(F)(F)F)cc3)n2)c1=O [Compound 511] | < 300 | < 300
CCc1cccc(CC)c1-n1c(C=C(C)C)c(C(=O)N2CC3(CNC3)C2)cc(-c2nc(-c3ccc(Cl)cc3)cs2)c1=O [Compound 512] | < 300 | < 300
CCOc1ncc(Cl)cc1-n1c(C=C(C)C)c(C(=O)N2CCNCC2)cc(-c2nc(-c3ccc(C(F)(F)F)nc3)cs2)c1=O [Compound 513] | 300 to 1000 | < 300
O=c1c(-c2nc(-c3ccc(Cl)cc3)cs2)cc2c(O)cccc2n1-c1cccnc1 [Compound 514] | 1000 to 5000 | > 20000
CCc1cccc(CC)c1-n1c(C=C(C)C)c(C(=O)N2CCNCC2)cc(-c2nc(-c3ccc(C(F)(F)F)cn3)cs2)c1=O [Compound 515] | < 300 | < 300
CCc1cccc(CC)c1-n1c(CC(C)C)c(C(=O)N2CCNCC2)cc(-c2nc(-c3ccc(C(F)F)cc3)c(C)s2)c1=O [Compound 517] | < 300 | < 300
